Results as given in PubChem BioAssay (NCI).
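Growth conditions: 96-well plates. Treatment: test compound, 48 hours, 5 concentrations. Analysis: linear interpolation between bracketing concentrations; unreached endpoints set to highest concentration. At the GI50, growth is halved. At the TGI there is no net growth.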

Assays:
Test in all cases: NCI-60 cell line screen, 48 h
LOX IMVI melanoma = test system: LOX IMVI melanoma
DU-145 prostate = test system: DU-145 prostate
SW-620 colon = test system: SW-620 colon
SN12C renal = test system: SN12C renal
SF-268 CNS = test system: SF-268 CNS
SF-295 CNS = test system: SF-295 CNS
CCRF-CEM leukemia = test system: CCRF-CEM leukemia
ACHN renal = test system: ACHN renal
SNB-19 CNS = test system: SNB-19 CNS
T-47D breast = test system: T-47D breast
OVCAR-8 ovarian = test system: OVCAR-8 ovarian
HOP-62 NSCLC = test system: HOP-62 NSCLC
OVCAR-4 ovarian = test system: OVCAR-4 ovarian
UACC-62 melanoma = test system: UACC-62 melanoma
CAKI-1 renal = test system: CAKI-1 renal
NCI-H460 lung = test system: NCI-H460 lung
SK-MEL-2 melanoma = test system: SK-MEL-2 melanoma
SF-539 CNS = test system: SF-539 CNS
EKVX NSCLC = test system: EKVX NSCLC
M14 melanoma = test system: M14 melanoma
SR leukemia = test system: SR leukemia
RXF 393 renal = test system: RXF 393 renal
RPMI-8226 leukemia = test system: RPMI-8226 leukemia
OVCAR-3 ovarian = test system: OVCAR-3 ovarian
UO-31 renal = test system: UO-31 renal
HT29 colon = test system: HT29 colon
COLO 205 colon = test system: COLO 205 colon
NCI-H522 lung = test system: NCI-H522 lung
KM12 colon = test system: KM12 colon
BT-549 breast = test system: BT-549 breast
A498 renal = test system: A498 renal
IGROV1 ovarian = test system: IGROV1 ovarian
HCC-2998 colon = test system: HCC-2998 colon
U251 CNS = test system: U251 CNS
NCI-H226 lung = test system: NCI-H226 lung
SK-MEL-5 melanoma = test system: SK-MEL-5 melanoma
HCT-15 colon = test system: HCT-15 colon
PC-3 prostate = test system: PC-3 prostate
MCF7 breast = test system: MCF7 breast
NCI/ADR-RES ovarian = test system: NCI/ADR-RES ovarian
HS 578T breast = test system: HS 578T breast
NCI-H23 lung = test system: NCI-H23 lung
786-0 renal = test system: 786-0 renal
SK-OV-3 ovarian = test system: SK-OV-3 ovarian
HOP-92 NSCLC = test system: HOP-92 NSCLC
MOLT-4 leukemia = test system: MOLT-4 leukemia
A549 NSCLC = test system: A549 NSCLC
HCT-116 colon = test system: HCT-116 colon
TK-10 renal = test system: TK-10 renal
HL-60(TB) leukemia = test system: HL-60(TB) leukemia
MDA-MB-231 breast = test system: MDA-MB-231 breast
SK-MEL-28 melanoma = test system: SK-MEL-28 melanoma
OVCAR-5 ovarian = test system: OVCAR-5 ovarian
MDA-MB-435 = test system: MDA-MB-435
UACC-257 melanoma = test system: UACC-257 melanoma
K-562 leukemia = test system: K-562 leukemia

COc1ccc(C2NC(=O)c3cc4c(cc3N2)OCO4)cc1 (configuration not stated)
GI50 (LOX IMVI melanoma): 0.821 µM
TGI (LOX IMVI melanoma): > 100 µM
GI50 (DU-145 prostate): 0.807 µM
TGI (DU-145 prostate): > 100 µM
GI50 (SW-620 colon): 0.432 µM
TGI (SW-620 colon): > 100 µM
GI50 (SN12C renal): 0.481 µM
TGI (SN12C renal): > 100 µM
GI50 (SF-268 CNS): 2 µM
TGI (SF-268 CNS): > 100 µM
GI50 (SF-295 CNS): 0.704 µM
TGI (SF-295 CNS): > 100 µM
GI50 (CCRF-CEM leukemia): 0.868 µM
TGI (CCRF-CEM leukemia): > 100 µM
GI50 (ACHN renal): 4.1 µM
TGI (ACHN renal): > 100 µM
GI50 (SNB-19 CNS): 0.966 µM
TGI (SNB-19 CNS): > 100 µM
GI50 (T-47D breast): 0.683 µM
TGI (T-47D breast): > 100 µM
GI50 (OVCAR-8 ovarian): 1.63 µM
TGI (OVCAR-8 ovarian): > 100 µM
GI50 (HOP-62 NSCLC): 1.02 µM
TGI (HOP-62 NSCLC): > 100 µM
GI50 (OVCAR-4 ovarian): 5.52 µM
TGI (OVCAR-4 ovarian): > 100 µM
GI50 (UACC-62 melanoma): 0.571 µM
TGI (UACC-62 melanoma): > 100 µM
GI50 (CAKI-1 renal): 0.466 µM
TGI (CAKI-1 renal): > 100 µM
GI50 (NCI-H460 lung): 0.341 µM
TGI (NCI-H460 lung): > 100 µM
GI50 (SK-MEL-2 melanoma): 2.84 µM
TGI (SK-MEL-2 melanoma): > 100 µM
GI50 (SF-539 CNS): 1.01 µM
TGI (SF-539 CNS): 9.9 µM
GI50 (EKVX NSCLC): 2.42 µM
TGI (EKVX NSCLC): > 100 µM
GI50 (M14 melanoma): 0.927 µM
TGI (M14 melanoma): > 100 µM
GI50 (SR leukemia): 0.415 µM
TGI (SR leukemia): > 100 µM
GI50 (RXF 393 renal): 0.287 µM
TGI (RXF 393 renal): 1.61 µM
TGI (RPMI-8226 leukemia): > 100 µM
GI50 (OVCAR-3 ovarian): 0.791 µM
TGI (OVCAR-3 ovarian): 3.52 µM
GI50 (UO-31 renal): 13.5 µM
TGI (UO-31 renal): > 100 µM
GI50 (HT29 colon): 0.856 µM
TGI (HT29 colon): > 100 µM
GI50 (COLO 205 colon): 0.408 µM
TGI (COLO 205 colon): 3.56 µM
GI50 (NCI-H522 lung): 1.87 µM
TGI (NCI-H522 lung): 6.58 µM
GI50 (KM12 colon): 0.557 µM
TGI (KM12 colon): > 100 µM
GI50 (BT-549 breast): 16.5 µM
TGI (BT-549 breast): > 100 µM
GI50 (A498 renal): 0.164 µM
TGI (A498 renal): 2.95 µM
GI50 (IGROV1 ovarian): 4.92 µM
TGI (IGROV1 ovarian): > 100 µM
GI50 (HCC-2998 colon): 1.07 µM
TGI (HCC-2998 colon): 7.14 µM
GI50 (U251 CNS): 0.849 µM
TGI (U251 CNS): > 100 µM
GI50 (NCI-H226 lung): 0.389 µM
TGI (NCI-H226 lung): 6.09 µM
GI50 (SK-MEL-5 melanoma): 0.297 µM
TGI (SK-MEL-5 melanoma): 50.5 µM
GI50 (HCT-15 colon): 0.504 µM
TGI (HCT-15 colon): > 100 µM
GI50 (PC-3 prostate): 2.81 µM
TGI (PC-3 prostate): > 100 µM
GI50 (MCF7 breast): 0.339 µM
TGI (MCF7 breast): > 100 µM
GI50 (NCI/ADR-RES ovarian): 0.508 µM
TGI (NCI/ADR-RES ovarian): 3.86 µM
GI50 (HS 578T breast): 1.42 µM
TGI (HS 578T breast): > 100 µM
GI50 (NCI-H23 lung): 1.25 µM
TGI (NCI-H23 lung): > 100 µM
GI50 (786-0 renal): 2.38 µM
TGI (786-0 renal): > 100 µM
GI50 (SK-OV-3 ovarian): 0.499 µM
TGI (SK-OV-3 ovarian): 7.36 µM
GI50 (HOP-92 NSCLC): 11.4 µM
TGI (HOP-92 NSCLC): > 100 µM
GI50 (MOLT-4 leukemia): 2.54 µM
TGI (MOLT-4 leukemia): > 100 µM
GI50 (A549 NSCLC): 0.678 µM
TGI (A549 NSCLC): > 100 µM
GI50 (HCT-116 colon): 0.511 µM
TGI (HCT-116 colon): > 100 µM
GI50 (TK-10 renal): 19.3 µM
TGI (TK-10 renal): > 100 µM
GI50 (HL-60(TB) leukemia): 0.345 µM
TGI (HL-60(TB) leukemia): 1.85 µM
GI50 (MDA-MB-231 breast): 3.03 µM
TGI (MDA-MB-231 breast): > 100 µM
GI50 (SK-MEL-28 melanoma): 0.719 µM
TGI (SK-MEL-28 melanoma): > 100 µM
GI50 (OVCAR-5 ovarian): 1.51 µM
TGI (OVCAR-5 ovarian): > 100 µM
GI50 (MDA-MB-435): 0.215 µM
TGI (MDA-MB-435): 0.543 µM

CC(C)(C)OC(=O)N(CCCN)CCCCN
TGI (DU-145 prostate): > 100 µM
TGI (SW-620 colon): > 100 µM
TGI (SN12C renal): > 100 µM
TGI (SF-268 CNS): > 100 µM
TGI (SF-295 CNS): > 100 µM
TGI (CCRF-CEM leukemia): > 100 µM
TGI (ACHN renal): > 100 µM
TGI (SNB-19 CNS): > 100 µM
TGI (T-47D breast): > 100 µM
TGI (OVCAR-8 ovarian): > 100 µM
TGI (HOP-62 NSCLC): > 100 µM
TGI (OVCAR-4 ovarian): > 100 µM
TGI (UACC-62 melanoma): > 100 µM
TGI (CAKI-1 renal): > 100 µM
TGI (NCI-H460 lung): > 100 µM
TGI (SK-MEL-2 melanoma): > 100 µM
TGI (SF-539 CNS): > 100 µM
TGI (EKVX NSCLC): > 100 µM
TGI (M14 melanoma): > 100 µM
TGI (SR leukemia): > 100 µM
TGI (RXF 393 renal): > 100 µM
TGI (RPMI-8226 leukemia): > 100 µM
TGI (OVCAR-3 ovarian): > 100 µM
TGI (UO-31 renal): > 100 µM
TGI (HT29 colon): > 100 µM
TGI (COLO 205 colon): > 100 µM
TGI (NCI-H522 lung): > 100 µM
TGI (KM12 colon): > 100 µM
TGI (BT-549 breast): > 100 µM
TGI (A498 renal): > 100 µM
TGI (IGROV1 ovarian): > 100 µM
TGI (HCC-2998 colon): > 100 µM
TGI (U251 CNS): > 100 µM
TGI (NCI-H226 lung): > 100 µM
TGI (SK-MEL-5 melanoma): > 100 µM
TGI (UACC-257 melanoma): > 100 µM
TGI (HCT-15 colon): > 100 µM
TGI (PC-3 prostate): > 100 µM
TGI (MCF7 breast): > 100 µM
TGI (NCI/ADR-RES ovarian): > 100 µM
TGI (HS 578T breast): > 100 µM
TGI (NCI-H23 lung): > 100 µM
TGI (786-0 renal): > 100 µM
TGI (SK-OV-3 ovarian): > 100 µM
TGI (HOP-92 NSCLC): > 100 µM
TGI (MOLT-4 leukemia): > 100 µM
TGI (A549 NSCLC): > 100 µM
TGI (HCT-116 colon): > 100 µM
TGI (TK-10 renal): > 100 µM
TGI (K-562 leukemia): > 100 µM
TGI (HL-60(TB) leukemia): > 100 µM
TGI (MDA-MB-231 breast): > 100 µM
TGI (SK-MEL-28 melanoma): > 100 µM
TGI (OVCAR-5 ovarian): > 100 µM
TGI (MDA-MB-435): > 100 µM
